In brackets after ≈: the same amount, converted by molar mass. Several values for one entry are separate records, joined by “and”; a condition that tells them apart may be missing. Equal entries are not always repeated. Where two headings read alike, the source gives them in different places. Starred links: 1 amine or outer side, 2 acyl side, 3 side chain; linkers in the order of their positions; H or OH if unused. Non-standard residues stand in square brackets, D forms with d. Residues, ends and D or L forms follow the SMILES beside them. X2 = O=C(C(CCCc1ccccc1)(CCCc1ccccc1)CN[*:1])[*:2]; X5 = O=C(C(CCC1CCCCC1)(CCC1CCCCC1)CN[*:1])[*:2]; X3 = O=C(C(CN[*:1])(Cc1ccccc1)Cc1ccccc1)[*:2]
Columns and labels:
Assay type in all cases: cell-based
human red blood cells = assay: cells; settings: Erythrocyte, highest concentration tested 1000 μg/ml
Description: The hemolytic testing against human erythrocytes was conducted by Lytix Biopharma A/S (Tromso, Norway). Each compound was tested from a concentration of 1 mg/ml and lower, except 4k and 4n which was only tested up to 0.5 mg/ml due to solubility problems. 8 mL of blood was collected from adult healthy male donors. The blood was divided equally and distributed in a commercial available EDTA containing test tube (BD vacutainer, 7.2 mg K2 EDTA) and in a 10 mL reaction vial containing 40 μL of a heparin solution (1000 U/mL in 0.9% sodium chloride). After 30 minutes the hematocrit of the EDTA treated blood was determined. The heparinized blood was centrifuged for 10 minutes at 1500 rpm and the supernatant removed. Subsequently the RBCs were washed with prewarmed PBS three times, and diluted to 10% hematocrit. The compounds dissolved in PBS (concentration 1 μg/mL to 1000 µg/mL) and the erythrocytes were incubated under agitation at 37° C. for one hour. A positive control with an end concentration of 0.1% TRITON X-100 (nonionic surfactant) and a negative control containing pure PBS buffer were included. The samples were centrifuged (4000 rpm) for 5 minutes and the absorption of the supernatant was measured at 405 nm. The values given in Table 1A correspond to 50% hemolysis.
The plasma fraction of heparinized human blood was first removed by centrifugation and three additional washing steps with 37° C. pre-warmed phosphate buffered saline (PBS). Subsequently, the human RBC were diluted to 10% hematocrit and the β^2,2-amino acid derivatives were dissolved in PBS providing concentrations ranging from 1-1000 μg/mL. The diluted RBC were added to the compound solutions to a final erythrocyte concentration of 1% v/v. PBS and TRITON X-100 (non-ionic surfactant), in a final concentration of 0.1% v/v, were included as negative and positive control. After 1 hour agitated incubation at 37° C. the samples were centrifuged at 4000 rpm for 5 min. Release of hemoglobin was determined by measuring the absorbance of the supernatant at 405 nm. Hemolytic activity was calculated as the ratio of treated sample with β^2,2-amino acid derivative and tenside treated sample according to the formula: […]

MRC-5 = assay: Toxicity assay MRC-5; settings: highest concentration tested 500 μg/ml; for IC50: Homo sapiens, MRC5, Example 2; for Toxicity MRC-5: Example 2
Description: Cells for Toxicity Studies Used MRC-5 and human RBC MRC-5 assay: 500 μg/ml

[1] = tested on: methicillin resistant Staphylococcus aureus (ATCC 33591); assay: microbe, parasite or virus in culture; settings: for MIC: Staphylococcus aureus; for Therapeutic index MRSA: EC50 RBC divided by MIC
Description: (§1) The antimicrobial testing was conducted by TosLab A/S (Tromsø, Norway). Each compound was diluted to 1 mg/ml in water and tested in duplicates at 200, 100, 50, 35, 15, 10, 5, 2.5, 1, 0.5 μg/ml except 4n which was tested at 50, 35, 15, 10, 5, 2.5, 1, 0.5 μg/ml due to solubility problems. All tested compounds were di TFA salts.
(§2) The bacterial strains were grown in 2% Bacto Peptone water until exponential growth was achieved. […] A bacterial concentration of 2×10^6 cfu/ml was used. Both negative control (no peptide) and positive control (Gentamicin) was used for all bacterial strains. Growth or no growth was judged by the turbidity of the wells.
Methicillin resistant Staphylococcus aureus (ATCC 33591)
(§3) Antimicrobial assays: 200 μg/ml
(§4) Suitable methodologies are described in Example 1.
(§5) Each compound was tested in duplicates at 200, 100, 50, 35, 15, 10, 5, 2.5, 1, 0.5 μg/ml. All tested compounds were di-trifluoroacetic acid salts.

[2] = tested on: Staphylococcus aureus (ATTC 25923); assay: microbe, parasite or virus in culture; settings: for MIC: Staphylococcus aureus; for Therapeutic index S. aureus: EC50 RBC divided by MIC
Description: as §1, §2
Staphylococcus aureus (ATTC 25923)
as §3, §4, §5

[3] = tested on: Escherichia coli (ATTC 25922); assay: microbe, parasite or virus in culture; settings: for MIC: Escherichia coli; for Therapeutic index E. coli: EC50 RBC divided by MIC
Description: as §1, §2
Escherichia coli (ATTC 25922)
as §3, §4, §5

[4] = tested on: methicillin resistant Staphylococcus epidermidis (ATCC 27626); assay: microbe, parasite or virus in culture; settings: for MIC: Staphylococcus epidermidis, ATCC 27626 / MRSE; for Therapeutic index MRSE: EC50 RBC divided by MIC
Description: as §1, §2
Methicillin resistant Staphylococcus epidermidis (ATCC 27626)
as §3, §4, §5

A20 = assay: cells; settings: for Anti-Cancer Selectivity MRC-5/A20: ratio of MRC-5 to A20 values
Description: Cancer Cell Lines A20 or MethA Anticancer assays: 500 μg/ml

[5] = Homo sapiens, Example 2, * low solubility in the test media, read-out: Toxicity RBC (EC50)
[6] = ATCC 33591 / MRSA, Example 2, values separated by / are repeat tests, read-out: Antimicrobial potency (MIC) MRSA
[7] = Example 2, values separated by / are repeat tests, read-out: Antimicrobial potency (MIC) S. aureus
[8] = Example 2, values separated by / are repeat tests, read-out: Antimicrobial potency (MIC) E. coli
[9] = Example 2, values separated by / are repeat tests, read-out: Antimicrobial potency (MIC) MRSE
[10] = Example 2, values separated by / are repeat tests
[11] = Example 4, hemolytic activity, human red blood cells, read-out: EC50 RBC
[12] = ATCC33591, Example 4, ATCC 33591, di-trifluoroacetate salts, highest concentration tested 200 μg/ml, read-out: MIC MTRSA
[13] = ATCC25923, Example 4, ATCC 25923, di-trifluoroacetate salts, highest concentration tested 200 μg/ml, read-out: MIC S. aureus
[14] = ATCC25922, Example 4, ATCC 25922, di-trifluoroacetate salts, highest concentration tested 200 μg/ml, read-out: MIC E. coli
[15] = Example 4, ATCC 27626, di-trifluoroacetate salts, highest concentration tested 200 μg/ml, read-out: MIC MRSE

SMILES	EC50 (human red blood cells; [5])	IC50 (MRC-5)	MIC [1, 6]	MIC [2, 7]	MIC [3, 8]	MIC [4, 9]	Toxicity MRC-5 (MRC-5)	Anti-Cancer Selectivity MRC-5/A20 (A20)	EC50 (human red blood cells; [11])	Therapeutic index MRSA [1]	MIC [1, 12]	Therapeutic index S. aureus [2]	MIC [2, 13]	Therapeutic index E. coli [3]	MIC [3, 14]	Therapeutic index MRSE [4]	MIC [4, 15]	further results
NCCNC(=O)C(CN)(CCc1ccccc1)CCc1ccccc1 [Compound 5, N-(2-aminoethyl)-2-(aminomethyl)-2-phenethyl-4-phenylbutanamide]	> 1000 µg/mL	21.5 µg/mL (≈ 63.3 µM)	100 µg/mL	100 µg/mL	> 200 µg/mL	50 µg/mL	–	–	–	–	–	–	–	–	–	–	–	–
Cc1ccc(CC(CN)(Cc2ccc(C)cc2)C(=O)NCCN)cc1 [Compound 8, 3-amino-N-(2-aminoethyl)-2,2-bis(4-methylbenzyl)propanamide]	> 1000 µg/mL	26 µg/mL (≈ 76.6 µM)	100 µg/mL	200 µg/mL	> 200 µg/mL	100 µg/mL	44 µg/mL	–	–	–	–	–	–	–	–	–	–	–
COc1cc(CC(CN)(Cc2cc(OC)cc(OC)c2)C(=O)NCCN)cc(OC)c1 [Compound 13, 3-amino-N-(2-aminoethyl)-2,2-bis(3,5-dimethoxy-benzyl)propanamide]	> 1000 µg/mL	62.5 µg/mL (≈ 145 µM)	200 µg/mL	200 µg/mL	> 200 µg/mL	100 µg/mL	68 µg/mL	–	–	–	–	–	–	–	–	–	–	–
CC(C)(C)c1cc(CC(CN)(Cc2cc(C(C)(C)C)cc(C(C)(C)C)c2)C(=O)NCCN)cc(C(C)(C)C)c1 [Compound 14, 3-amino-N-(2-aminoethyl)-2,2-bis(3,5-di-tert-butylbenzyl)propanamide]	> 62.5 µg/mL	7.5 µg/mL (≈ 14 µM)	2.5 µg/mL	3.75 µg/mL	–	2.5 µg/mL	8.5 µg/mL	–	–	–	–	–	–	–	–	–	–	Antimicrobial potency (MIC) S. aureus [2, 10]: 5 µg/mL; Antimicrobial potency (MIC) MRSE [4, 10]: 5 µg/mL
NCCCC[C@@H](N)C(=O)N[C@H](CCCCN)C(=O)N[C@H](Cc1c[nH]c2ccccc12)C(=O)NCC(CCC1CCCCC1)(CCC1CCCCC1)C(=O)N[C@@H](Cc1c[nH]c2ccccc12)C(=O)N[C@@H](CCCCN)C(=O)N[C@@H](CCCCN)C(N)=O [Compound 15, (R)-N-((2R,9S,12S,15S)-9-((1H-indol-3-yl)methyl)-19-amino-12-(4-aminobutyl)-15-carbamoyl-6,6-bis(2-cyclohexylethyl)-1-(1H-indol-3-yl)-3,7,10,13-tetraoxo-4,8,11,14-tetraazanonadecan-2-yl)-6-amino-2-((R)-2,6-diaminohexanamido)hexanamide] (H-[dK][dK][dW][X5]WKK-NH2)	–	–	–	–	–	–	45.7 µg/mL	3.0	–	–	–	–	–	–	–	–	–	Anticancer potency (IC50) A20 (A20): 15.0 µg/mL
NCCCC[C@@H](N)C(=O)N[C@H](CCCCN)C(=O)N[C@H](Cc1c[nH]c2ccccc12)C(=O)NCC(Cc1ccccc1)(Cc1ccccc1)C(=O)N[C@@H](Cc1c[nH]c2ccccc12)C(=O)N[C@@H](CCCCN)C(=O)N[C@@H](CCCCN)C(N)=O [Compound 16, (R)-N-((2R,9S,12S,15S)-9-((1H-indol-3-yl)methyl)-19-amino-12-(4-aminobutyl)-6,6-dibenzyl-15-carbamoyl-1-(1H-indol-3-yl)-3,7,10,13-tetraoxo-4,8,11,14-tetraazanonadecan-2-yl)-6-amino-2-((R)-2,6-diaminohexanamido)hexanamide] (H-[dK][dK][dW][X3]WKK-NH2)	–	–	–	–	–	–	>500 µg/mL	(>1.9)	–	–	–	–	–	–	–	–	–	Anticancer potency (IC50) A20 (A20): 263 µg/mL
NCCCC[C@@H](N)C(=O)N[C@H](CCCCN)C(=O)N[C@H](Cc1c[nH]c2ccccc12)C(=O)NCC(CCCc1ccccc1)(CCCc1ccccc1)C(=O)N[C@@H](Cc1c[nH]c2ccccc12)C(=O)N[C@@H](CCCCN)C(=O)N[C@@H](CCCCN)C(N)=O [Compound 17, (R)-N-((2R,9S,12S,15S)-9-((1H-indol-3-yl)methyl)-19-amino-12-(4-aminobutyl)-15-carbamoyl-1-(1H-indol-3-yl)-3,7,10,13-tetraoxo-6,6-bis(3-phenylpropyl)-4,8,11,14-tetraazanonadecan-2-yl)-6-amino-2-((R)-2,6-diaminohexanamido)hexanamide] (H-[dK][dK][dW][X2]WKK-NH2)	–	–	–	–	–	–	241 µg/mL and 221 µg/mL	9.1 and 5.5	–	–	–	–	–	–	–	–	–	–
CN(C)CCNC(=O)C(CN)(Cc1ccc(C(F)(F)F)cc1)Cc1ccc(C(F)(F)F)cc1 [Entry 6b]	–	–	–	–	–	–	–	–	468 µM	66	7.1 µM	33	14 µM	9.4	50 µM	22	21 µM	–
NCCNC(=O)C(CN)(CCCc1ccccc1)CCCc1ccccc1 [Entry 7a]	–	–	–	–	–	–	–	–	1380 µM	23	59 µM	19	71 µM	4.1	336 µM	55	25 µM	–
NCCNC(=O)C(CN)(Cc1ccc(C(F)(F)F)cc1)Cc1ccc(C(F)(F)F)cc1 [Entry 7b]	–	–	–	–	–	–	–	–	425 µM	57	7.4 µM	28	15 µM	8	52 µM	28	15 µM	–
